In patent publication US20060122181A1, “Heteroaromatic pentacyclic compound and medicinal use thereof” (Japan Tobacco Inc., priority 2003, published 2006) one finds melting point data, which are given here for 43 compounds.

`CCCC(CCC)c1ccc(OCc2ccc(-c3csc(CN(CCN)C(=O)c4ccc(C(=O)O)cn4)n3)cc2)cc1.Cl` came in with a melting point of 227 to 229 °C. The result for `CCCC(CCC)c1ccc(OCc2ccc(-c3csc(COc4cncc(C(=O)O)c4)c3)cc2)cc1.Cl` reads 170 to 173 °C; that for `CCC(CC)c1ccc(N(Cc2ccc(-c3csc(COc4ccc(C(=O)O)cc4)n3)cc2)C(C)C)cc1` [Example 1-2], 219 °C. The result for `CCC(CC)c1ccc(N(Cc2ccc(-c3csc(COc4ccc(C(=O)O)cn4)n3)cc2)C(C)C)cc1` [Example 1-3] reads 177 to 181 °C; that for `CCCC(CCC)c1ccc(N(C)Cc2ccc(-c3csc(COc4cncc(C(=O)O)c4)n3)cc2)cc1` [Example 1-4], 135 to 138 °C; that for `CCCC(CCC)c1ccc(N(C)Cc2ccc(-c3csc(COc4ccc(C(=O)O)cc4)n3)cc2)cc1` [Example 1-5], 161 to 163 °C. Then `CCCC(CCC)N(Cc1ccc(-c2csc(COc3ccc(C(=O)O)cn3)n2)cc1)c1ccc(C(C)C)cc1` [Example 1-6], with 141 to 143 °C; and `CCCC(CCC)N(Cc1ccc(-c2csc(COc3cncc(C(=O)O)c3)n2)cc1)c1ccc(C(C)C)cc1` [Example 1-7], with 184 to 185 °C. Compound `CC(C)CN(Cc1ccc(-c2csc(COc3cncc(C(=O)O)c3)n2)cc1)c1ccc(C(C)C)cc1` [Example 1-8] returned a melting point of 196 to 197 °C. `CCCC(CCC)N(Cc1ccc(-c2csc(COc3ccc(C(=O)O)cc3)n2)cc1)c1ccc(C(C)C)cc1` [Example 1-9] returned a melting point of 166 to 168 °C.

Take `CCCC(CCC)N(Cc1ccc(-c2csc(COc3cccc(C(=O)O)c3)n2)cc1)c1ccc(C(C)C)cc1` [Example 1-10]: the melting point fell in the range of 127 to 129 °C. For `CCC(CC)N(Cc1ccc(-c2csc(COc3ccc(C(=O)O)cn3)n2)cc1)c1ccc(C(C)C)cc1` [Example 1-11], the melting point is 155 to 157 °C. In turn, `CCC(CC)N(Cc1ccc(-c2csc(COc3cncc(C(=O)O)c3)n2)cc1)c1ccc(C(C)C)cc1` [Example 1-12] registered a melting point of 110 to 114 °C. Then `CCC(CC)c1ccc(N(Cc2ccc(-c3csc(CSc4ccc(C(=O)O)cc4)n3)cc2)C(C)C)cc1` [Example 1-13], with 132.5 °C; and `CCCC(CCC)c1ccc(N(C)Cc2ccc(-c3csc(CSc4ccc(C(=O)O)cc4)n3)cc2)cc1` [Example 1-14], with 122 to 124 °C. The result for `CCCC(CCC)c1ccc(N(C)Cc2ccc(-c3csc(CN(C)S(=O)(=O)CCCC(=O)[O-])n3)cc2)cc1.[Na+]` [Example 1-16] reads 217 to 220 °C; that for `CN(Cc1ccc(C(=O)O)cc1)c1nc(-c2ccc(CNc3ccc(C4CCCCC4)cc3)cc2)cs1` [Example 1-17], 206 to 210 °C.

Compound `CN(Cc1ccc(-c2csc(N(C)Cc3ccc(C(=O)O)cc3)n2)cc1)c1ccc(C2CCCCC2)cc1` [Example 1-18] gave a melting point of 190 to 192 °C. The result for `CCC(CC)c1ccc(N(Cc2ccc(-c3csc(N(C)Cc4ccc(C(=O)O)cc4)n3)cc2)C(C)C)cc1` [Example 1-20] reads 150 to 153 °C. Then `CCC(CC)c1ccc(N(Cc2ccc(-c3csc(CN(C)[C@@H](Cc4ccccc4)C(=O)O)n3)cc2)C(C)C)cc1` [Example 1-22], with 80 °C. Then `CC(C)CN(Cc1ccc(-c2csc(CN(CC(=O)O)Cc3ccccc3)n2)cc1)c1ccc(C(C)(C)C)cc1` [Example 1-23], with 133 °C. As for `CC(C)CN(Cc1ccc(-c2csc(CN(CC(=O)O)Cc3ccccc3)n2)cc1)c1ccc(Cl)cc1` [Example 1-24], the melting point turned out to be 152 °C.

The compound `CC(C)CN(Cc1ccc(-c2csc(CN(CC(=O)O)C(=O)Nc3ccccc3)n2)cc1)c1ccc(C(C)(C)C)cc1` [Example 1-27] registered a melting point of 119 °C. The result for `CC(C)CN(Cc1ccc(-c2csc(CN(CC(=O)O)C(=O)c3ccccc3)n2)cc1)c1ccc(C(C)(C)C)cc1` [Example 1-28] reads 147 °C; that for `CC(C)CN(Cc1ccc(-c2csc(CN(CC(=O)O)C(=O)c3ccccn3)n2)cc1)c1ccc(C(C)(C)C)cc1` [Example 1-29], 160 °C; that for `CC(C)CN(Cc1ccc(-c2csc(CN(CC(=O)O)C(=O)c3cccnc3)n2)cc1)c1ccc(C(C)(C)C)cc1` [Example 1-30], 193 °C. The result for `CC(C)CN(Cc1ccc(-c2csc(CN(CC(=O)O)S(=O)(=O)c3ccccc3)n2)cc1)c1ccc(C(C)(C)C)cc1` [Example 1-31] reads 168.5 °C. Then `CCC(CC)c1ccc(N(Cc2ccc(-c3csc(CN4Cc5ccccc5CC4C(=O)O)n3)cc2)C(C)C)cc1` (stereo not shown) [Example 1-32], with 127.5 °C. Consider `CCC(CC)N(Cc1ccc(-c2csc(CN3Cc4ccccc4C[C@H]3C(=O)O)n2)cc1)c1ccc(C(C)C)cc1` [Example 1-35], for which the melting point was 110 to 113 °C. The compound `CCC(C)(C)c1ccc(OCc2ccc(-c3csc(N(C)Cc4ccc(C(=O)O)cc4)n3)cc2)cc1` [Example 1-38] yielded a melting point of 155 to 157 °C. Then `CCCC(CCC)c1ccc(OCc2ccc(-c3csc(CN(C)[C@@H](Cc4ccccc4)C(=O)O)n3)cc2)cc1` [Example 1-42], with 114 to 118 °C; and `Cc1ccc(OCc2ccc(-c3csc(CN(CC(=O)O)Cc4ccccc4)n3)cc2)c(C(C)(C)C)c1` [Example 1-43], with 146 °C; and `CCCC(CCC)c1ccc(OCc2ccc(-c3csc(CN4Cc5ccccc5C[C@H]4C(=O)O)n3)cc2)cc1` [Example 1-46], with 77 to 82 °C. The result for `CCCC(CCC)c1ccc(OCc2ccc(-c3csc(CN4Cc5ccccc5C[C@@H]4C(=O)O)n3)cc2)cc1` [Example 1-47] reads 77 to 82 °C. In turn, `CCCC(CCC)c1ccc(OCc2ccc(-c3csc(COc4ccc(C(=O)O)cc4)n3)cc2)cc1` [Example 1-49] had a melting point of 199 to 202 °C.

As to `CCCC(CCC)c1ccc(OCc2ccc(-c3csc(CN(C)S(=O)(=O)CCCC(=O)O)n3)cc2)cc1` [Example 1-51], the melting point was 103.3 to 106.3 °C.

On to `CN(c1ccc(C(=O)O)cc1)c1nc(-c2ccc(C(=O)Nc3ccc(C4CCCCC4)cc3)cc2)cs1` [Example 1-52], for which the melting point was 250 °C (dec.). The compound `CCCC(CCC)c1ccc(NC(=O)c2ccc(-c3csc(CN(CC(=O)O)Cc4ccccc4)n3)cc2)cc1` [Example 1-54] gave a melting point of 201 to 202 °C.

As for `CCCC(CCC)c1ccc(CNC(=O)c2ccc(-c3csc(CN(CC(=O)O)Cc4ccccc4)n3)cc2)cc1` [Example 1-55], the melting point was 141 to 143 °C. Then `CCCC(CCC)c1ccc(CN(C)C(=O)c2ccc(-c3csc(CN(CC(=O)O)Cc4ccccc4)n3)cc2)cc1` [Example 1-56], with 65 to 71 °C. Regarding `CCCC(CCC)c1ccc(CN(CC)C(=O)c2ccc(-c3csc(CN(CC(=O)O)Cc4ccccc4)n3)cc2)cc1` [Example 1-57], the melting point lay within 59 to 65 °C. The result for `CC(C)CN(Cc1ccc(-c2csc(CN(CC(=O)O)C(=O)N3CCOCC3)n2)cc1)c1ccc(C(C)(C)C)cc1` [Example 1-59] reads 138 °C; that for `CCC(CC)c1ccc(N(Cc2ccc(-c3csc(COc4cc(OC)cc(C(=O)O)c4)n3)cc2)C(C)C)cc1` [Example 1-63], 131 °C.
